The values below come from patent publication US20260125347A1, “l,2-SUBSTITUTED 3-OXOPYRAZOLIDINE DERIVATIVES AS PROSTAGLANDIN E2 RECEPTOR 4 (EP4) AGONISTS FOR THE TREATMENT OF GASTROINTESTINAL AND PULMONARY DISEASES” (NXERA PHARMA UK LIMITED, priority 2022, published 2026).

Each structure is given as a SMILES string.

One series addresses T1, human EP4 (Homo sapiens, UniProt P35408).
T1 construct: expressed in transfected cells; host or cells: HEK293 cells transduced with EP4 BacMam virus (virus generated in SF9 cells)
Briefly: cAMP Gs functional assay (HTRF cAMP dynamic-2) in HEK293 cells transfected with EP4 Bacmam virus. In kind it is cell-based. To be noted: for Emax: HEK293, HEK293 cells expressing human EP4; for Emax / cAMP human EP4 Emax: positive control 10 μM PGE2; for EC50: HEK293 cells expressing human EP4, 30 mins at 37° C., mid-point of the curve, read-out: cAMP human EP4 pEC50 (converted); for cAMP human EP4 Emax: HEK293 cells expressing human EP4, unit assumed. Here is the method:
Cloning, Baculovirus generation, large scale infection of HEK293 cells and membrane preparation: Human prostaglandin E2 receptor 4 (EP4) was cloned into pBacMam expression vector (GeneScript, UK). Transposition of EP4 DNA was performed using Invitrogen's Bac-to-Bac Baculovirus Expression Systems. P0 baculovirus was generated by transfecting SF9 Cells with bacmid DNA using Cellfectin II transfection reagent (ThermoFisher Scientific, UK). Following P0 generation P1 virus was then generated ready for large scale infection and membrane preparation. HEK293 cells were grown in DMEM (ThermoFisher Scientific, UK), supplemented with 10% heat inactivated fetal bovine serum (FBS). Cells were infected at a seeding density of 3.5 million cells/mL in 500 cm^3 flasks at 5% v/v EP4 Bacman. Expression was carried out over a 36 hr period at 37° C. with 5% CO2. The cells were removed using PBS and a cell scrapper. The cell culture was centrifuged at 2500 RPM for 10 mins at 4° C. The supernatant was then poured off and the pellet stored at −80° C. The pellet was defrosted and re-suspended in 15 mL of homogenising buffer (20 mM HEPES, 10 mM EDTA, pH 7.4). Then homogenised in mechanical homogeniser (VMR) for 10 seconds. The membrane was centrifuged in centrifuge tubes at 40,000 g for 15 mins at 4° C. The supernatant was poured away and re-suspended in 15 mL of homogenising buffer. Homogenised for 20 seconds. The membrane was centrifuged at 40,000 g for 45 mins at 4° C. The membrane was re-suspended in 3 mL of storage buffer (20 mM HEPES, 0.1 mM EDTA, pH 7.4) mixing well. The resulting membranes were then stored at −80° C. cAMP Gs Functional Assay: CAMP production following EP4 receptor activation was determined using the Homogeneous Time-Resolved Fluorescence (HTRF) CAMP dynamic-2 assay (Cisbio, France). HEK293 cells were transfected using a 0.5% EP4 Bacmam virus for 36 hours, before dissociating the cells, and freezing at −150° C. On the day of testing, increasing concentration of test compounds, alongside positive controls (10 μM PGE2 (Tocris, Abingdon, UK)) and negative control (DMSO (Sigma-Aldrich, UK) were added to a ProxiPlate-384 Plus, White 384-shallow well Mircoplate, (PerkinElmer, USA) using the ECHO dispense. Cells were defrosted in a water bath and resuspended in DMEM supplemented with 10% FBS before centrifuging at 1200 RPM for 5 mins to form a pellet. The pellet was resuspended in assay buffer (DMEM+0.5 mM IBMX (Tocris, Abingdon, UK)) to 0.5×10^6 cells/mL. Cell suspension, for a final assay concentration of 5000 cell/well was added using the multidrop to the pre-dispensed assay plate. The plate was then incubated at 37° C. for 30 mins, with 5% CO2. The CAMP production was determined as manufacturer's instructions, before plates were read on a PheraStar fluorescence plate reader (BMG LabTech, Germany).
In general terms: TR-FRET usually uses a lanthanide donor and a delayed reading to cut background.

The subject of the next series is Caco-2 cells. The series can be described thus: Unidirectional Caco-2 cell permeability assay. Format: in vitro ADME. The following applies: 10 μM, apical pH 6.5, basolateral pH 7.4, 1 hour, 37° C., n=2. Here is the method: (§1) Caco-2 cells (ECACC) were seeded onto 24-well Transwell plates at 2×10^5 cells per well and used in confluent monolayers after a 21 day culture at 37° C. under 5% CO2. Test compounds were incubated at 10 μM, 0.2% DMSO final, n=2 in assay buffer (Hanks balanced salt solution supplemented with 25 mM HEPES, adjusted to pH 6.5). Hanks balanced salt solution supplemented with 25 mM HEPES, adjusted to pH 7.4 (0.2% DMSO final) was used for the basolateral chamber (as receiver).
(§2) Incubations were performed at 37° C., with samples removed from both donor and acceptor chambers at T=0 and 1 hour and compound analysed by mass spectrometry (LC-MS/MS) including an analytical internal standard (0.5 μM carbamazepine).
(§3) Apparent permeability (Papp) values are shown in Table 3 and were determined from the relationship:
(§4) Where V is the volume of each Transwell compartment (apical 125 μL, basolateral 600 μL), and concentrations are the relative MS responses for compound (normalized to internal standard) in the donor chamber before incubation and acceptor chamber at the end of the incubation Area=area of cells exposed for drug transfer (0.33 cm^2).
(§5) Lucifer Yellow (LY) was added to the apical buffer in all wells to assess viability of the cell layer. As LY cannot freely permeate lipophilic barriers, a high degree of LY transport indicates poor integrity of the cell layer and wells with a LY Papp>10×10^6 cm/s were rejected.
(§6) Compound recovery from the wells was determined from MS responses (normalized to internal standard) in donor and acceptor chambers at the end of incubation compared to response in the donor chamber pre-incubation.
In general terms: Caco-2 monolayers are a common model of the intestinal barrier.

Series [1] can be described thus: Unidirectional Caco-2 cell permeability assay. In kind it is in vitro ADME. The following applies: human, Caco-2, 10 μM, apical pH 6.5, basolateral pH 7.4, 1 hour, 37° C., n=2. Here is the method: as §1, §2, §3, §4, §5, §6

T1 sequence (P35408 whole entry): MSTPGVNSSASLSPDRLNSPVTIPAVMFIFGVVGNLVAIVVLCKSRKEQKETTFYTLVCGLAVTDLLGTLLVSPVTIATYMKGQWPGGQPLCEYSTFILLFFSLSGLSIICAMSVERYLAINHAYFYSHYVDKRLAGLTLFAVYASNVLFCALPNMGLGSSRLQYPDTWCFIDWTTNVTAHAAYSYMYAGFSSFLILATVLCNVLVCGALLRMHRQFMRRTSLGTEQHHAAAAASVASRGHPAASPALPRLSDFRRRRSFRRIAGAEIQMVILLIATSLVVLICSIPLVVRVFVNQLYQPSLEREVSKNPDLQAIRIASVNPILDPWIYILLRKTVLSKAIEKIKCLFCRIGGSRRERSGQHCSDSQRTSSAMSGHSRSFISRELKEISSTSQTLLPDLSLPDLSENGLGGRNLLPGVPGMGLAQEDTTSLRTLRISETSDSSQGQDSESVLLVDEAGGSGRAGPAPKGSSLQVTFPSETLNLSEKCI

As for `Cc1cc(C(N)=O)ccc1-c1cccc(C(O)CCN2CCC(=O)N2CCc2cc(F)c(C(=O)O)c(F)c2)c1` (single isomer, unassigned) [5; isomer 1], at human EP4, the maximal effect (Emax) was 88% and the EC50 is 0.794 µM.
For `Cc1cc(S(N)(=O)=O)ccc1-c1cccc(C(O)CCN2CCC(=O)N2CCc2ccc(C(=O)O)cc2)c1` (single isomer, unassigned) [3; isomer 2], at human EP4, the EC50 is 0.00126 µM and the cAMP human EP4 Emax was 98%. Also, the “Caco-2 Mean Papp A-B” value in the series on Caco-2 cells is 0.72 10^−6 cm/s.
With `Cc1cc(OS(N)(=O)=O)ccc1-c1cccc(C(O)CCN2CCC(=O)N2CCc2ccc(C(=O)O)cc2)c1` (racemic) [4; racemate], at human EP4, the Emax is 97% and the EC50 was 0.00631 µM.
`Cc1cc(C(N)=O)ccc1-c1cccc(C(O)CCN2CCC(=O)N2CCc2ccc(C(=O)O)c(O)c2)c1` (single isomer, unassigned) [7; isomer 2]: on human EP4, the EC50 is 0.1 µM and the cAMP human EP4 Emax came to 97%. For the same compound, the “Caco-2 Mean Papp A-B” value with Caco-2 cells is given as <0.1 10^−6 cm/s.
As to `Cc1cc(O)ccc1-c1cccc(C(O)CCN2CCC(=O)N2CCc2ccc(C(=O)O)cc2)c1` (single isomer, unassigned) [1; isomer 1], at human EP4, the maximal effect (Emax) amounted to 97% and the EC50 was 0.0501 µM. The compound also showed a Papp A→B at 1 h, 10 μM in series [1] of 0.86 ×10⁻⁶ cm/s.
On the same counts, the results for `Cc1cc(O)ccc1-c1cccc(C(O)CCN2CCC(=O)N2CCc2ccc(C(=O)O)cc2)c1` (racemic) [1; racemate] are 97%, 0.00398 µM and 0.68 ×10⁻⁶ cm/s.
On the same counts, the results for `Cc1cc(S(N)(=O)=O)ccc1-c1cccc(C(O)CCN2CCC(=O)N2CCc2ccc(C(=O)O)c(O)c2)c1` (single isomer, unassigned) [6; isomer 1] are 97%, 0.00398 µM and less than 0.1 ×10⁻⁶ cm/s.
On to `Cc1cc(S(N)(=O)=O)ccc1-c1cccc(C(O)CCN2CCC(=O)N2CCc2ccc(C(=O)O)cc2)c1` (racemic) [3; racemate], for which, at human EP4, the maximal effect (Emax) is 97% and the EC50 is 0.00251 µM. This compound registered a Papp A→B at 1 h, 10 μM in series [1] of 0.3 ×10⁻⁶ cm/s.
Taken in the same sequence, the figures for `Cc1cc(C(N)=O)ccc1-c1cccc(C(O)CCN2CCC(=O)N2CCc2ccc(C(=O)O)c(O)c2)c1` (single isomer, unassigned) [7; isomer 1] were 99%, 0.00398 µM and less than 0.1 ×10⁻⁶ cm/s.
`Cc1cc(C(N)=O)ccc1-c1cccc(C(O)CCN2CCC(=O)N2CCc2cc(F)c(C(=O)O)c(F)c2)c1` (racemic) [5; racemate]: on human EP4, the Emax worked out at 97% and the EC50 is 0.0501 µM.
For the compound `Cc1cc(O)ccc1-c1cccc(C(O)CCN2CCC(=O)N2CCc2ccc(C(=O)O)cc2)c1` (single isomer, unassigned) [1; isomer 2], at human EP4, the EC50 is 0.002 µM and the cAMP human EP4 Emax was 99%.
For the compound `Cc1cc(OS(N)(=O)=O)ccc1-c1cccc(C(O)CCN2CCC(=O)N2CCc2ccc(C(=O)O)cc2)c1` (single isomer, unassigned) [4; isomer 2], on human EP4, the EC50 was 0.00251 µM and the cAMP human EP4 Emax worked out at 97%. The “Caco-2 Mean Papp A-B” value with Caco-2 cells was 0.67 10^−6 cm/s.
As for `Cc1cc(C(N)=O)ccc1-c1cccc(C(O)CCN2CCC(=O)N2CCc2ccc(-c3nnn[nH]3)cc2)c1` (single isomer, unassigned) [9; isomer 2], at human EP4, the EC50 is 0.000251 µM and the cAMP human EP4 Emax was 96%. In series [1], the Papp A→B at 1 h, 10 μM is less than 0.1 ×10⁻⁶ cm/s.
On the same counts, the results for `Cc1cc(S(N)(=O)=O)ccc1-c1cccc(C(O)CCN2CCC(=O)N2CCc2cc(F)c(C(=O)O)c(F)c2)c1` (single isomer, unassigned) [8; isomer 2] are 0.0316 µM, 99% and less than 0.3 ×10⁻⁶ cm/s.
For the compound `Cc1cc(C(N)=O)ccc1-c1cccc(C(O)CCN2CCC(=O)N2CCc2ccc(C(=O)O)cc2)c1` (single isomer, unassigned) [2; isomer 1], at human EP4, the maximal effect (Emax) is 95% and the EC50 is 0.158 µM. In series [1], the Papp A→B at 1 h, 10 μM was less than 0.29 ×10⁻⁶ cm/s.
On the same counts, the results for `Cc1cc(C(N)=O)ccc1-c1cccc(C(O)CCN2CCC(=O)N2CCc2ccc(-c3nnn[nH]3)cc2)c1` (racemic) [9; racemate] are 97%, 0.000158 µM and less than 0.1 ×10⁻⁶ cm/s.
For `Cc1cc(S(N)(=O)=O)ccc1-c1cccc(C(O)CCN2CCC(=O)N2CCc2cc(F)c(C(=O)O)c(F)c2)c1` (single isomer, unassigned) [8; isomer 1], on human EP4, the Emax is 96% and the EC50 was 2.51 µM.
Regarding `Cc1cc(C(N)=O)ccc1-c1cccc(C(O)CCN2CCC(=O)N2CCc2ccc(C(=O)O)cc2)c1` (single isomer, unassigned) [2; isomer 2], at human EP4, the EC50 is 0.000501 µM and the cAMP human EP4 Emax turned out to be 98%. The “Caco-2 Mean Papp A-B” value in the series with Caco-2 cells is given as <0.47 10^−6 cm/s.
As for `Cc1cc(OS(N)(=O)=O)ccc1-c1cccc(C(O)CCN2CCC(=O)N2CCc2ccc(C(=O)O)cc2)c1` (single isomer, unassigned) [4; isomer 1], on human EP4, the Emax stood at 93% and the EC50 is 0.251 µM. The “Caco-2 Mean Papp A-B” value in the series on Caco-2 cells is reported as 0.3 10^−6 cm/s.
Take `Cc1cc(S(N)(=O)=O)ccc1-c1cccc(C(O)CCN2CCC(=O)N2CCc2ccc(C(=O)O)c(O)c2)c1` (single isomer, unassigned) [6; isomer 2]: on human EP4, the EC50 was 0.0501 µM and the cAMP human EP4 Emax was found to be 96%.
Consider `Cc1cc(C(N)=O)ccc1-c1cccc(C(O)CCN2CCC(=O)N2CCc2cc(F)c(C(=O)O)c(F)c2)c1` (single isomer, unassigned) [5; isomer 2], for which, on human EP4, the EC50 is 0.0158 µM and the cAMP human EP4 Emax amounted to 96%. Moreover, the Papp A→B at 1 h, 10 μM in series [1] was less than 0.1 ×10⁻⁶ cm/s.
Take `Cc1cc(C(N)=O)ccc1-c1cccc(C(O)CCN2CCC(=O)N2CCc2ccc(C(=O)O)cc2)c1` (racemic) [2; racemate]: on human EP4, the Emax worked out at 99% and the EC50 was 0.00316 µM.
Taken in the same sequence, the figures for `Cc1cc(C(N)=O)ccc1-c1cccc(C(O)CCN2CCC(=O)N2CCc2ccc(-c3nnn[nH]3)cc2)c1` (single isomer, unassigned) [9; isomer 1] were 93% and 0.0398 µM.
Consider `Cc1cc(S(N)(=O)=O)ccc1-c1cccc(C(O)CCN2CCC(=O)N2CCc2ccc(C(=O)O)cc2)c1` (single isomer, unassigned) [3; isomer 1], for which, at human EP4, the maximal effect (Emax) came to 93% and the EC50 is 0.0398 µM. Also, the “Caco-2 Mean Papp A-B” value in the series with Caco-2 cells was 0.23 10^−6 cm/s.

In general, Emax refers to the greatest response seen or fitted, relative to the assay's reference. What is called Papp A→B is how fast a substance crosses the layer from the apical side.
